Numbers after ± are expanded uncertainties.

The data set in a line: activity coefficient (dimensionless); of the first substance listed, at infinite dilution; xn = mol fraction of the nth substance listed. The settings on record: 298 K; 101 kPa; Liquid; Chromatography; x1 = 0.
For `Clc1ccccc1Cl` [1,2-dichlorobenzene] + NC=O, the activity coefficient came out at 159 ± 17.
Consider `c1ccccc1` [benzene] + NC=O, for which the activity coefficient was 53 ± 6.
The same measure for `c1ccc(-c2ccccc2)cc1` [biphenyl] + NC=O: 1320 ± 150.
In the case of `Brc1ccccc1` [bromobenzene] + NC=O, the activity coefficient turned out to be 107 ± 13.
For `Clc1ccccc1` [chlorobenzene] + NC=O, the activity coefficient was 94 ± 16.
The result for `Fc1ccccc1` [fluorobenzene] + NC=O reads 54 ± 6.
As to `c1ccc2ccccc2c1` [naphthalene] + NC=O, the activity coefficient stood at 533 ± 63.
In the case of `Cc1ccccc1` [toluene] + NC=O, the activity coefficient is 81 ± 8.
